The text below walks through data of patent US20240174690A1, “ANNULATED 2-AMINO-3-CYANO THIOPHENES AND DERIVATIVES FOR THE TREATMENT OF CANCER” (BOEHRINGER INGELHEIM INTERNATIONAL GMBH, priority 2021, published 2024).

The subject of series [1] is SAS cells. In words: SAS CTG proliferation assay (120 h) (HNSCC, wt amplified). Format: cell-based. The essentials:
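Viability measured by CellTiter-Glo luminescence, normalized to DMSO wells, after 120 h compound treatment of SAS cells. Cells grown in DMEM:F12 plus 10% FCS at 300 cells per well, dosed the day after seeding. Four-parameter fit gives IC50.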

In series [2] the test system is KRAS G12D-dependent Ba/F3 cells. The experiment in a line: Ba/F3 proliferation assay, KRAS G12D. Type of series: cell-based. The conditions noted are these: Mus musculus, BaF3, 72 h, AlamarBlue. In a few lines: (§1)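 IL-3-independent Ba/F3 lines carrying retrovirally introduced KRAS G12C, G12D or G12V; puromycin withdrawn ~10 days before assay. Duplicate treatments, AlamarBlue fluorescence readout, curve-fit analysis.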

In series [3] the test system is KRAS G12V-dependent Ba/F3 cells. In words: Ba/F3 proliferation assay, KRAS G12V.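 Further: proliferation IC50 in KRAS G12V-dependent Ba/F3 cells read by AlamarBlue.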 Type of series: cell-based. The conditions noted are these: Mus musculus, BaF3, 72 h, AlamarBlue. In a few lines:
as §1
Background: Alamar Blue is a resazurin reagent that responds to reducing activity.

A short description of series [4]: Metabolic (microsomal) stability assay, human liver microsomes (HLM). Particulars: predicted clearance as percent of liver blood flow, 1 μM. Format: in vitro ADME. In a few lines: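 LC-MS/MS tracked parent disappearance at 0, 5, 15, 30 and 60 min in NADPH-initiated incubations with 1 mg/mL human microsomal protein and 1 μM compound at 37°C, pH 7.5. First-order fits gave intrinsic clearance, which was scaled up and reported as % QH. NADPH-free controls were also run.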

The nature of series [5]: Plasma protein binding assay (PPB), equilibrium dialysis, 10% FCS in PBS. Particulars: bovine, read-out: PPB 10% FCS (% fu). Type of series: in vitro ADME. In a few lines: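 Test compound (1-10 μmol/L) in 10% FCS in PBS was dialysed for 3-5 h at 37° C versus PBS ± dextran across a semipermeable membrane. LC-MS of both compartments after protein precipitation gave Cserum and Cbuffer, from which the unbound fraction fu was derived.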

Usually IC50 stands for the midpoint of a concentration-inhibition curve. A lower IC50 goes with greater potency. In the case of `C[C@H](Oc1cc(N2CCN(C)C3(COC3)C2)nc(-c2noc3c2CCC[C@@]32CCCc3sc(N)c(C#N)c32)n1)[C@@H]1C[C@@H](F)CN1C` [II-148], the concentration for half-maximal inhibition (IC50) in series [1] came out at 421 nM; in series [2] it was 14 nM; in series [3], 162 nM. Besides, the “HLM QH” value in series [4] is 52%. The fraction unbound in series [5] was determined as 0.25.

Consider `C[C@H](Oc1cc(-n2cc3ccn([C@@H](C)c4ccccn4)c(=O)c3n2)nc(-c2noc3c2CCC[C@@]32CCCc3sc(N)c(C#N)c32)n1)[C@@H]1CCCN1C` [II-205], for which the concentration for half-maximal inhibition (IC50) in series [1] turned out to be 20 nM; in series [2] it was 85 nM; in series [3] it was 6 nM. The “HLM QH” value in series [4] was under 24%. The fraction unbound in series [5] worked out at 0.06.

Regarding `C[C@H](Oc1cc(N2CCNC[C@]23CCOC3)nc(-c2onc3c2CCC[C@@]32CCCc3sc(N)c(C#N)c32)n1)[C@@H]1CCCN1C` [I-12], the IC50 came out at 218 nM in series [1], 4 nM in series [2] and 343 nM in series [3]. Further, the “HLM QH” value in series [4] is 36%. For the same compound, the fraction unbound in series [5] is 0.46.

In the case of `CO[C@H]1CCN(C)[C@@H]1[C@H](C)Oc1cc(-n2ccc(C(N)=O)n2)nc(-c2noc3c2CCC[C@@]32CCCc3sc(N)c(C#N)c32)n1` [II-201], the IC50 stood at 20 nM in series [1], 18 nM in series [2] and 1 nM in series [3]. The “HLM QH” value in series [4] is given as 41%. Besides, in series [5], the fraction unbound was determined as 0.07.

With `C[C@H](Oc1cc(-n2cc3c(n2)CN(C)C3)nc(-c2noc3c2CCC[C@@]32CCCc3sc(N)c(C#N)c32)n1)[C@@H]1CCCN1C` [II-174], the IC50 in series [1] turned out to be 248 nM; in series [2], 16 nM; in series [3], 71 nM. Further, the “HLM QH” value in series [4] is listed as 39%. The fraction unbound in series [5] was 0.17.

With `C[C@H](Oc1cc(N2CCNC[C@@]23CCOC3)nc(-c2onc3c2CCC[C@@]32CCCc3sc(N)c(C#N)c32)n1)[C@@H]1CCCN1C` [I-13], the IC50 in series [1] came to 294 nM; in series [2], 49 nM; in series [3], 821 nM. Also, the “HLM QH” value in series [4] was under 24%. The fraction unbound in series [5] was found to be 0.21.

Consider `C[C@H](Oc1cc(N2CCOC2=O)nc(-c2noc3c2CCC[C@@]32CCCc3sc(N)c(C#N)c32)n1)[C@@H]1CCCN1C` [II-143], for which the figures for the half-inhibitory concentration (IC50) in series [1], in series [2] and in series [3] were 48 nM, 3 nM and 2 nM, respectively. For the same compound, the “HLM QH” value in series [4] is on record as 57%. Also, the fraction unbound in series [5] turned out to be 0.18.

Take `COc1c(O[C@@H](C)[C@@H]2CCCN2C)nc(-c2noc3c2CCC[C@@]32CCCc3sc(N)c(C#N)c32)nc1-n1ccc(C(N)=O)n1` [II-159]: the IC50 in series [1] stood at 70 nM; in series [2], 366 nM; in series [3], 93 nM. The “HLM QH” value in series [4] is recorded as 40%. Besides, in series [5], the fraction unbound was 0.21.

For the compound `CO[C@@H]1C[C@@H]([C@H](C)Oc2cc(N3CCN(C)C4(COC4)C3)nc(-c3noc4c3CCC[C@@]43CCCc4sc(N)c(C#N)c43)n2)N(C)C1` [II-153], the half-inhibitory concentration (IC50) was 199 nM in series [1], 126 nM in series [2] and 2380 nM in series [3]. For the same compound, the “HLM QH” value in series [4] is 58%. Moreover, in series [5], the fraction unbound is 0.14.

Take `C[C@H](Oc1cc(N2C[C@@H]3[C@@H](N)[C@@H]3C2)nc(-c2noc3c2CCC[C@@]32CCCc3sc(N)c(C#N)c32)n1)[C@@H]1CCCN1C` [II-167]: the IC50 in series [1] came to 1390 nM; in series [2], 614 nM; in series [3], 879 nM. Moreover, the “HLM QH” value in series [4] is recorded as under 24%. Further, in series [5], the fraction unbound worked out at 0.26.

As for `C[C@H](Oc1cc(N2CCN(C)C3(CC3)C2)nc(-c2noc3c2CCC[C@@]32CCCc3sc(N)c(C#N)c32)n1)[C@@H]1C[C@@H](F)CN1C` [II-149], the figures for the IC50 in series [1], in series [2] and in series [3] were 849 nM, 18 nM and 412 nM, respectively. Further, the “HLM QH” value in series [4] is listed as 45%. Further, the fraction unbound in series [5] is 0.17.

`C[C@H](Oc1cc(-n2cc(C(=O)N(C)C)nn2)nc(-c2noc3c2CCC[C@@]32CCCc3sc(N)c(C#N)c32)n1)[C@@H]1CCCN1C` [II-132]: the IC50 in series [1] is 319 nM; in series [2] it was 99 nM; in series [3], 6 nM. Also, in series [4], the “HLM QH” value was 36%. Also, in series [5], the fraction unbound was 0.31.

For `C[C@H](Oc1cc(-n2ccc(C(=O)N(C)C3COC3)n2)nc(-c2noc3c2CCC[C@@]32CCCc3sc(N)c(C#N)c32)n1)[C@@H]1CCCN1C` [II-194], the half-inhibitory concentration (IC50) in series [1] was 37 nM; in series [2], 22 nM; in series [3], 4 nM. The “HLM QH” value in series [4] was 30%. Besides, the fraction unbound in series [5] was 0.08.

Turning to `C[C@H](Oc1cc(-c2cccc(C(N)=O)c2)nc(-c2noc3c2CCC[C@@]32CCCc3sc(N)c(C#N)c32)n1)[C@@H]1CCCN1C` [II-133], the results for the IC50 in series [1], in series [2] and in series [3] were 202 nM, 248 nM and 19 nM, respectively. Further, the “HLM QH” value in series [4] was under 24%. Besides, the fraction unbound in series [5] is 0.04.

Consider `CO[C@H]1CCN(C)[C@@H]1[C@H](C)Oc1cc(-n2ccc(C(=O)N[C@@H](C)c3ccccn3)n2)nc(-c2noc3c2CCC[C@@]32CCCc3sc(N)c(C#N)c32)n1` [II-196], for which the 50% inhibitory concentration (IC50) in series [1] was determined as 9 nM; in series [2] it was 9 nM; in series [3], 1 nM. The “HLM QH” value in series [4] is on record as 75%. Further, the fraction unbound in series [5] was 0.01.

In the case of `C[C@H](Oc1cc(-n2ccc(-c3cn([C@@H]4CCOC4)nn3)n2)nc(-c2noc3c2CCC[C@@]32CCCc3sc(N)c(C#N)c32)n1)[C@@H]1CCCN1C` [II-211], the values for the concentration for half-maximal inhibition (IC50) in series [1], in series [2] and in series [3] were 17 nM, 28 nM and 3 nM, respectively. Also, the “HLM QH” value in series [4] is given as under 24%. Further, the fraction unbound in series [5] worked out at 0.02.

On to `C[C@H](Oc1cc(N2CCNC3(COC3)C2)nc(-c2noc3c2CCC[C@@]32CCCc3sc(N)c(C#N)c32)n1)[C@@H]1C[C@@H](F)CN1C` [II-150], for which the half-maximal inhibitory concentration (IC50) in series [1] came out at 91 nM; in series [2], 3 nM; in series [3], 77 nM. For the same compound, the “HLM QH” value in series [4] is reported as 64%. The fraction unbound in series [5] was 0.13.

Take `C[C@H](Oc1cc(-n2cc3c(n2)CCN(C)C3)nc(-c2noc3c2CCC[C@@]32CCCc3sc(N)c(C#N)c32)n1)[C@@H]1CCCN1C` [II-141]: the concentration for half-maximal inhibition (IC50) in series [1] is 873 nM; in series [2] it was 14 nM; in series [3] it was 170 nM. Also, the “HLM QH” value in series [4] is 28%. The fraction unbound in series [5] is 0.6.

For `CO[C@H]1CCN(C)[C@@H]1[C@H](C)Oc1cc(N2CCNC3(CC3)C2)nc(-c2noc3c2CCC[C@@]32CCCc3sc(N)c(C#N)c32)n1` [II-184], the IC50 in series [1] came out at 882 nM; in series [2], 1 nM; in series [3] it was 155 nM. Besides, the “HLM QH” value in series [4] was 60%. Besides, the fraction unbound in series [5] came to 0.1.

As for `C[C@H](Oc1cc(-n2cc3ccn(C4CCOCC4)c(=O)c3n2)nc(-c2noc3c2CCC[C@@]32CCCc3sc(N)c(C#N)c32)n1)[C@@H]1CCCN1C` [II-206], the results for the IC50 in series [1], in series [2] and in series [3] were 25 nM, 63 nM and 3 nM, respectively. Besides, in series [4], the “HLM QH” value is given as under 24%. In addition, in series [5], the fraction unbound worked out at 0.05.

On to `C[C@H](Oc1cc(-c2cn(C)nn2)nc(-c2onc3c2CCC[C@@]32CCCc3sc(N)c(C#N)c32)n1)[C@@H]1CCCN1C` [I-16], for which the figures for the IC50 in series [1], in series [2] and in series [3] were 77 nM, 32 nM and 9 nM, respectively. For the same compound, the “HLM QH” value in series [4] is given as 31%. Besides, the fraction unbound in series [5] turned out to be 0.55.

In the case of `C[C@H](Oc1cc(-n2cc(-c3cncs3)nn2)nc(-c2noc3c2CCC[C@@]32CCCc3sc(N)c(C#N)c32)n1)[C@@H]1CCCN1C` [II-125], the IC50 amounted to 182 nM in series [1], 109 nM in series [2] and 16 nM in series [3]. For the same compound, the “HLM QH” value in series [4] is given as under 24%. Further, in series [5], the fraction unbound was 0.13.

For the compound `C[C@H](Oc1cc(-c2ccn(C[C@H]3CCOC3)n2)nc(-c2noc3c2CCC[C@@]32CCCc3sc(N)c(C#N)c32)n1)[C@@H]1CCCN1C` [II-129], the IC50 came to 18 nM in series [1], 92 nM in series [2] and 9 nM in series [3]. In series [4], the “HLM QH” value is listed as under 24%. For the same compound, the fraction unbound in series [5] worked out at 0.23.

Take `CC(C)[C@@H]1CN(c2cc(O[C@@H](C)[C@@H]3CCCN3C)nc(-c3noc4c3CCC[C@@]43CCCc4sc(N)c(C#N)c43)n2)CCN1` [II-166]: the figures for the IC50 in series [1], in series [2] and in series [3] were 1180 nM, 154 nM and 430 nM, respectively. Further, in series [4], the “HLM QH” value is under 24%. Besides, in series [5], the fraction unbound came out at 0.22.

As for `C[C@H](Oc1cc(-n2cc3ccn([C@@H]4CCOC4)c(=O)c3n2)nc(-c2noc3c2CCC[C@@]32CCCc3sc(N)c(C#N)c32)n1)[C@@H]1CCCN1C` [II-203], the half-inhibitory concentration (IC50) in series [1] was 18 nM; in series [2], 59 nM; in series [3], 4 nM. Further, the “HLM QH” value in series [4] is on record as under 24%. Further, the fraction unbound in series [5] is 0.04.
